Data taken from ChEMBL document CHEMBL1126722, “Potent nonpeptide angiotensin II receptor antagonists. 2. 1-(Carboxybenzyl)imidazole-5-acrylic acids” (J Med Chem, 1993).

Assays:
Angiotensin II receptor = molecular target: T1, Angiotensin II receptor (Rattus norvegicus, UniProt P29089+P25095+P35351); experiment: Inhibition of [125I]AII binding to Angiotensin II receptor, type 1 of rat mesenteric arteries; type: protein assay
T1 sequence (P29089 whole entry): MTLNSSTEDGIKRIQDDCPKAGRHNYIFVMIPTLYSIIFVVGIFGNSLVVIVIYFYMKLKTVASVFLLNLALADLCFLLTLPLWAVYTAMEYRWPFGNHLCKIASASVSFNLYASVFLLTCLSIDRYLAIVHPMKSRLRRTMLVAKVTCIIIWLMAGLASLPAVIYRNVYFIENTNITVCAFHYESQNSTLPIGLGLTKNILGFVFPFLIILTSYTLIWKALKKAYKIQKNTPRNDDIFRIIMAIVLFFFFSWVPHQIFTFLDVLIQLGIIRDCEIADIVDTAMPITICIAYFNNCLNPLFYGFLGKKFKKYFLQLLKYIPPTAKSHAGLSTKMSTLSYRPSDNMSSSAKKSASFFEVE
T1 sequence (P25095 whole entry): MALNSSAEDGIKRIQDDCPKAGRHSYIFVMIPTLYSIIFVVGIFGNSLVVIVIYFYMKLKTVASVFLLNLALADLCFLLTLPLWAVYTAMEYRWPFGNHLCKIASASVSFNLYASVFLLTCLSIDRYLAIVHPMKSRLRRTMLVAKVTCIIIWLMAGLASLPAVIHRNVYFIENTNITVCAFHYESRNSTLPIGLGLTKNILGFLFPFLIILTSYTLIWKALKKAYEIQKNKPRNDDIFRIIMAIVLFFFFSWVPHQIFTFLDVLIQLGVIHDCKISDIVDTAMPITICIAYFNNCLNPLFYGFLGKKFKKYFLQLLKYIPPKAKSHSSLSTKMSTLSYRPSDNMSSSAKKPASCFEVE
T1 sequence (P35351 whole entry): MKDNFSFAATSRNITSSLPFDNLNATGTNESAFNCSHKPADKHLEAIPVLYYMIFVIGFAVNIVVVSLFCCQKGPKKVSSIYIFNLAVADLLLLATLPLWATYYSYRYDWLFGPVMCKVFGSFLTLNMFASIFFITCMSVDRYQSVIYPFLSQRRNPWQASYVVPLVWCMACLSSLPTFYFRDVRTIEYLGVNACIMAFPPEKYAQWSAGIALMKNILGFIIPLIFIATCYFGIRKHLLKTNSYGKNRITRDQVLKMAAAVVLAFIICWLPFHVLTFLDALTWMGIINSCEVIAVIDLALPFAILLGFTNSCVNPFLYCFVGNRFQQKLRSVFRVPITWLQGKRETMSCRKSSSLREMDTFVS

[1] = molecular target: Angiotensin II receptor (Rattus norvegicus) (UniProt P29089+P25095+P35351); experiment: In vivo inhibition of pressor response to angiotensin II in conscious normotensive rats; type: functional, organism-based

| Structure (SMILES) | IC50 (Angiotensin II receptor) | ID50 [1] |
| --- | --- | --- |
| CCCCc1ncc(/C=C(\Cc2cccs2)C(=O)O)n1Cc1cccc(OC)c1[N+](=O)[O-] | 130 nM |  |
| CCCCc1ncc(/C=C(\Cc2cccs2)C(=O)O)n1Cc1ccc(-c2ccccc2C(=O)O)cc1 | 6.6 nM | 0.62 mg/kg |
| CCCCc1ncc(/C=C(\Cc2cccs2)C(=O)O)n1Cc1ccccc1O | 34 nM |  |
| CCCCc1ncc(CC(Cc2cccs2)C(=O)O)n1Cc1ccc(C(=O)O)cc1 (centres undefined) | 53 nM | 0.24 mg/kg |
| CCCCc1ncc(/C=C(\Cc2cccs2)C(=O)O)n1Cc1ccc(C(=O)O)c(O)c1 | 0.59 nM | 0.15 mg/kg |
| CC(C)Cc1ncc(/C=C(\Cc2cccs2)C(=O)O)n1Cc1ccc(C(=O)O)cc1 | 163 nM | 2 mg/kg |
| CCCCc1ncc(/C=C(\Cc2cccs2)C(=O)O)n1Cc1cccc([N+](=O)[O-])c1 | 210 nM | 7 mg/kg |
| CCCCc1ncc(/C=C(\Cc2cccs2)C(=O)O)n1Cc1cccc(Cl)c1Cl | 46 nM | 2.8 mg/kg |
| CCCCCCc1ncc(/C=C(\Cc2cccs2)C(=O)O)n1Cc1ccc(C(=O)O)cc1 | 0.8 nM | 0.6 mg/kg |
| CCCCCCc1ncc(/C=C(\Cc2cccs2)C(=O)O)n1Cc1ccccc1Cl | 123 nM | 5.7 mg/kg |
| CCCCc1ncc(/C=C(\Cc2cccs2)C(N)=O)n1Cc1ccc(C(=O)O)cc1 | 21 nM |  |
| CCCCc1ncc(/C=C(\Cc2cccs2)C(=O)O)n1Cc1cc(Cl)c(C(=O)O)cc1Cl | 35 nM | 0.68 mg/kg |
| CCCCc1ncc(/C=C(\CC2CCCS2)C(=O)O)n1Cc1ccc(C(=O)O)cc1 (centres undefined) | 33.8 nM |  |
| CCCCc1ncc(/C=C(\Cc2cccs2)C(=O)NCC(=O)O)n1Cc1ccc(C(=O)O)cc1 | 4.81 nM |  |
| CCCCc1ncc(/C=C(\Cc2cccs2)C(=O)O)n1CCc1ccc(C(=O)O)cc1 | 63 nM |  |
| CCCc1ncc(/C=C(\Cc2cccs2)C(=O)O)n1Cc1ccccc1[N+](=O)[O-] | 15 nM |  |
| CCCCc1ncc(/C=C(\Cc2cccs2)c2nn[nH]n2)n1Cc1ccccc1[N+](=O)[O-] | 230 nM | 3.5 mg/kg |
| CCCCc1ncc(/C=C/C(=O)O)n1Cc1ccc(C(=O)O)cc1 | 391 nM |  |
| CCCCc1ncc(/C=C(\Cc2cccs2)C(=O)O)n1Cc1ccccc1C(F)(F)F | 260 nM | 3.4 mg/kg |
| CCCCc1ncc(/C=C(\Cc2cccs2)C(=O)O)n1Cc1ccccc1 | 4530 nM |  |
| CCCCc1ncc(C/C(=C/c2cccs2)C(=O)O)n1Cc1ccc(C(=O)O)cc1 |  | > 3 mg/kg |

| Structure (SMILES) | IC50 (Angiotensin II receptor) | ID50 [1] |
| --- | --- | --- |
| CCCCc1ncc(/C=C(\Cc2cccs2)C(=O)O)n1-c1ccc(C(=O)O)cc1 | 250 nM |  |
| CCCCc1ncc(/C=C(\Cc2cccs2)C(=O)O)n1Cc1ccccc1Cl |  | 3.6 mg/kg |
| CCCCc1ncc(/C=C(\Cc2ccccc2)C(=O)O)n1Cc1ccc(C(=O)O)cc1 | 4.26 nM |  |
| CCCCc1cnc(/C=C(\Cc2cccs2)C(=O)O)n1Cc1ccc(C(=O)O)cc1 | 248 nM |  |
| CCCCc1ncc(/C=C(\Cc2cccs2)C(=O)O)n1Cc1ccc(C(=O)O)c(C(=O)O)c1 | 4.6 nM | 0.12 mg/kg |
| CCCCc1ncc(/C=C(\Cc2cccs2)C(=O)O)n1Cc1ccc(C(=O)OC)cc1 | 39 nM |  |
| CCCCc1ncc(/C=C(\Cc2cccs2)C(=O)O)n1Cc1ccc(CC(=O)O)cc1 | 60 nM | 0.84 mg/kg |
| CCCC/C(=C\c1cnc(CCCC)n1Cc1ccc(C(=O)O)cc1)C(=O)O |  | 0.33 mg/kg |
| CCCCc1ncc(/C=C(\Cc2cccs2)C(=O)O)n1Cc1ccc(C(=O)OCC)cc1 | 27.6 nM |  |
| CCCc1ncc(/C=C(\Cc2cccs2)C(=O)O)n1Cc1ccc(C(=O)O)cc1 | 5 nM | 0.16 mg/kg |
| CC/C=C/c1ncc(/C=C(\Cc2cccs2)C(=O)O)n1Cc1ccccc1Cl | 570 nM |  |
| CCCCCCc1ncc(/C=C(\Cc2cccs2)C(=O)O)n1Cc1ccccc1[N+](=O)[O-] | 43 nM |  |
| CCCCc1ncc(/C=C(\Cc2cccs2)C(=O)O)n1Cc1ccc(C(=O)O)cc1[N+](=O)[O-] | 0.15 nM | 0.06 mg/kg |
| CC(C)CCc1ncc(/C=C(\Cc2cccs2)C(=O)O)n1Cc1ccc(C(=O)O)cc1 | 33.6 nM |  |
| CCCCc1ncc(/C=C(\CCc2cccs2)C(=O)O)n1Cc1ccc(C(=O)O)cc1 |  | 0.24 mg/kg |
| CCCCc1ncc(/C=C(\Cc2cccs2)C(N)=O)n1Cc1ccc(C(N)=O)cc1 | 94.2 nM |  |
| CCCCc1ncc(/C=C(\Cc2cccs2)c2nn[nH]n2)n1Cc1ccccc1C(F)(F)F |  | 8 mg/kg |
| CCCCc1ncc(/C=C(\Cc2cccs2)C(=O)O)n1Cc1ccccc1C#N | 22 nM |  |
| CCCc1ncc(/C=C(\Cc2cccs2)C(=O)O)n1Cc1ccccc1Cl | 127 nM | 8.1 mg/kg |
| CCCCc1ncc(/C=C(\Cc2cccs2)C(=O)O)n1Cc1ccc(S(N)(=O)=O)cc1 | 4.5 nM | > 3 mg/kg |
| CCCCc1ncc(/C=C(\Cc2cccs2)C(=O)O)n1Cc1ccc(C(=O)O)c(-c2ccccc2)c1 | 2.5 nM | 0.18 mg/kg |

| Structure (SMILES) | IC50 (Angiotensin II receptor) | ID50 [1] |
| --- | --- | --- |
| CCCCc1ncc(/C=C(\Cc2cccs2)C(=O)O)n1Cc1ccc(O)c(C)c1 | 21 nM |  |
| CCCc1cccc(/C=C(\Cc2cccs2)C(=O)O)c1Cc1ccc(C(=O)O)cc1 | > 10 nM |  |
| CCCCc1ncc(/C=C(\Cc2cccs2)C(=O)O)n1Cc1cccc(OC)c1 | 180 nM | 8 mg/kg |
| CCCCc1ncc(/C=C(\Cc2cccs2)C(=O)O)n1Cc1ccc([N+](=O)[O-])cc1 | 620 nM |  |
| CCCCc1ncc(/C=C(\Cc2cccs2)C(=O)O)n1Cc1ccc(C#N)cc1 | 118 nM |  |
| CCCCc1ncc(/C=C(\Cc2cccs2)C(=O)O)n1Cc1ccccc1C(=O)O | 6000 nM |  |
| CCCCc1ncc(/C=C(\Cc2cccs2)C(=O)O)n1Cc1ccc(OC)c(C)c1 | 66 nM |  |
| CCCCc1ncc(/C=C(\Cc2cccs2)c2nn[nH]n2)n1Cc1cccc(Cl)c1Cl | 1300 nM | 8 mg/kg |
| CCCCc1ncc(/C=C(\Cc2cccs2)C(=O)O)n1Cc1ccc(C(=O)O)c(Cl)c1 | 1 nM | 0.12 mg/kg |
| CCCCc1ncc(/C=C(\Cc2cccs2)C(=O)O)n1Cc1cccc(C(=O)O)c1 | 3.3 nM |  |
| CCCCc1ncc(/C=C(\Cc2cccs2)c2nn[nH]n2)n1Cc1ccc(C(=O)O)cc1 | 0.3 nM | 0.7 mg/kg |
| CCCCc1ncc(/C=C(\Cc2cccs2)c2nn[nH]n2)n1Cc1ccccc1Cl | 310 nM | 8 mg/kg |
| CCCCc1ncc(/C=C(\Cc2cccs2)C(=O)OCC)n1Cc1ccc(C(=O)OCC)cc1 | 1270 nM |  |
| CCCCc1ncc(/C=C(\Cc2cccs2)C(=O)O)n1Cc1ccc(C(N)=O)cc1 | 0.56 nM |  |
| CCCCc1ncc(/C=C(\Cc2cccs2)C(=O)O)n1Cc1ccc(C(=O)O)cc1Cl | 1.45 nM | 0.06 mg/kg |
| CCCCc1ncc(/C=C(\Cc2cccs2)C(=O)O)n1Cc1ccccc1[N+](=O)[O-] | 31 nM | 2.6 mg/kg |
| CCCCc1ncc(/C=C(\Cc2cccs2)C(=O)O)n1Cc1ccc(C(=O)O)cc1 (stereo in doubt; 2) |  | 0.08 mg/kg |
| CCCCc1ncc(/C=C(\Cc2cccs2)C(=O)O)n1Cc1ccccc1OC | 7350 nM | 15 mg/kg |
| CCCCc1ncc(/C=C(/C(=O)O)C(C)(C)c2cccs2)n1Cc1ccc(C(=O)O)cc1 | 416 nM |  |
| CCCCc1ncc(/C=C(\Cc2cccs2)C(=O)O)n1Cc1ccc(-c2nn[nH]n2)cc1 | 0.4 nM | 0.2 mg/kg |
